Measured values published in article PMC9304066, “H2S biogenesis by cystathionine beta-synthase: mechanism of inhibition by aminooxyacetic acid and unexpected role of serine” (Cellular and Molecular Life Sciences: CMLS, 2022).

Tests used:
tScCBS [1] = biological target: T1, tScCBS (Saccharomyces cerevisiae, UniProt P32582); experiment: CBL-LDH coupled-coupled CBS assay, tScCBS; format: biochemical
T1 construct: 6xHis (C); made in house
T1 sequence (P32582 1-345): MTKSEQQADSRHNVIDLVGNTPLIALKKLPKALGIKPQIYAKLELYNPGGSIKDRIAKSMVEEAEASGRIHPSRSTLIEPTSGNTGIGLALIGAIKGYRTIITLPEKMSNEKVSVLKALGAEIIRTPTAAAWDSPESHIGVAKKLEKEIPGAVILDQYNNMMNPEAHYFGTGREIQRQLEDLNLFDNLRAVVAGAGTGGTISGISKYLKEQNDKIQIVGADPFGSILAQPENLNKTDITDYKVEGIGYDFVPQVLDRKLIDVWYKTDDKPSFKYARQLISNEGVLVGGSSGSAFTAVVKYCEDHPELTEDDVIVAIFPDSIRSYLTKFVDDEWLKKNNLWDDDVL
Protocol: CBS coupled-coupled assay. CBS canonical activity utilizing Ser and Hcy was determined using cystathionine beta-lyase (CBL) and lactate-dehydrogenase (LDH) coupled-coupled assay as described previously with a few modifications. Native L-LDH from rabbit muscle was purchased from Sigma (catalog no. L2500) and recombinant CBL was purchased from Creative Enzymes (catalog no. NATE-1146). In a final volume of 150 µL, the reaction mixture contained 50 mM Tris–HCl pH 8.9, 20 µM PLP, 500 µM NADH, 1.3 µM LDH, 0.1 µM CBL, 0–20 mM Ser (or 0–50 mM Cys) and 500 ng of tScCBS or HsCBS. Assays with HsCBS were carried out in the absence or presence of 500 µM CBS allosteric activator S-adenosylmethionine (SAM). The reaction was triggered by the addition of 2 mM Hcy and the oxidation of NADH to NAD^+ was followed by monitoring the decrease in absorbance at 340 nm over time (ε340 = 6220 M^−1.cm^−1). […] All measurements were performed in triplicates using Tecan Infinite 200 PRO microplate reader. Kinetic data were analyzed using GraphPad Prism software.

human recombinant CSE = system: human recombinant CSE; parameters: method as in PMID 23488457; conditions: in vitro; cited from earlier work
colon cancer cells = system: colon cancer cells; parameters: method as in PMID 23836652, PMID 27521834, PMID 27257787; conditions: transformed cells like colon cancer cells; cited from earlier work
human skin fibroblasts = system: human skin fibroblasts; parameters: method as in PMID 31481613; conditions: cited from earlier work
tScCBS [2] = biological target: T1, tScCBS; experiment: Fluorescence emission titration of tScCBS (PLP excitation at 410 nm); format: binding; conditions: tScCBS 1 mg/mL, pH 8.5; decrease in emission at 520 nm, excitation 410 nm; read-out: Dissociation constant Kd (fluorescence)
Protocol: CBS enzymes. Recombinant truncated Saccharomyces cerevisiae CBS lacking the C-terminal regulatory domain (residues 346–507) and carrying the C-terminal 6xHis tag (tScCBS) was prepared as described previously. Engineered recombinant Homo sapiens CBS lacking a loop protruding from the central β-strand of the CBS2 domain corresponding to the residues 516–525 (HsCBS; described in detail in [21]) was purchased from GenScript.
UV − Vis and fluorescence spectroscopy. Absorption spectra were collected on a Tecan Infinite M200 Pro spectrophotometer in a buffer containing 50 mM Tris–HCl pH 8.5, 20 mM NaCl and 0.5 mM tris(2-carboxyethyl)phosphine (TCEP). All the spectra were carried out with a protein concentration of 1 mg/mL with a 1 cm path-length quartz cuvette in a total volume of 150 µL. tScCBS was titrated directly in a cuvette by successive additions of different concentrations of AOAA, Ser and Cys, respectively, and spectra were recorded between 240 and 600 nm after an incubation time of 3 min at RT. Fluorescence emission spectra were collected under the same conditions upon PLP excitation at 410 nm. Blank spectra were subtracted from sample spectra.

Structure (SMILES)	Reduction of activity catalyzing condensation of Cys and Hcy yielding H2S (tScCBS [1]; AOAA-inhibited tScCBS (200 µM AOAA)) [%]	Effect on condensation of Ser and Hcy (canonical reaction) (tScCBS [1]; tScCBS inhibited by 200 µM AOAA, 5 mM Ser + 2 mM Hcy)	Potency inhibiting human recombinant CSE relative to CBS (human recombinant CSE)	Concentrations required to achieve similar level of inhibition of CBS-derived H2S biogenesis (colon cancer cells) [mM]	Concentration shutting down CBS-derived H2S biogenesis (human skin fibroblasts) [µM]	Kd (tScCBS [2]) [µM]
NOCC(=O)O [AOAA, aminooxyacetic acid]	85	not impaired	~ 8 times	0.1 to 2	3	
N[C@@H](CO)C(=O)O [Ser, serine]						39.5 ± 8.26
